Laboratory results published in patent US8192962B2, “Processes for detecting toxic substances” (Daikin Industries, Ltd., priority 2001, dated 2012).

Test system: Unknown protein yeast genes
Test: DNA chip mRNA expression in yeast, unknown protein yeast genes (Table 1)
Assay type: cell-based, Saccharomyces cerevisiae S288C
How it was run: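 Whole-genome yeast DNA chip hybridization (65° C., >12 h) of Cy-labeled cDNA from S288C cells exposed 2 h at 25° C. to a sub-lethal toxicant dose in YPD; value is intensity relative to chemical-free control.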

`S=C([S-])NCCNC(=S)[S-].[Zn+2]` [(11), zinc N,N′-ethylenebis(dithiocarbamate)] was tested, and the “The level of expressed mRNA in the presence of chemical substance/The level of expressed mRNA in the absence of chemical substance” value (yeast gene YKL153W, incubated two hours with chemical substance) was 2.1, the “The level of expressed mRNA in the presence of chemical substance/The level of expressed mRNA in the absence of chemical substance” value (yeast gene YKL195W, incubated two hours with chemical substance) was 1.0 and the “The level of expressed mRNA in the presence of chemical substance/The level of expressed mRNA in the absence of chemical substance” value (yeast gene YKR033C) was 0.3. The “The level of expressed mRNA in the presence of chemical substance/The level of expressed mRNA in the absence of chemical substance” value (yeast gene YKR091W, incubated two hours with chemical substance) was 1.1, the “The level of expressed mRNA in the presence of chemical substance/The level of expressed mRNA in the absence of chemical substance” value (yeast gene YLR054C, incubated two hours with chemical substance) was 0.7 and the “The level of expressed mRNA in the presence of chemical substance/The level of expressed mRNA in the absence of chemical substance” value (yeast gene YLR149C, incubated two hours with chemical substance) was 2.8. For the same compound, the “The level of expressed mRNA in the presence of chemical substance/The level of expressed mRNA in the absence of chemical substance” value (yeast gene YLR152C, incubated two hours with chemical substance) was 3.6, the “The level of expressed mRNA in the presence of chemical substance/The level of expressed mRNA in the absence of chemical substance” value (yeast gene YLR194C, incubated two hours with chemical substance) was 1.4 and the “The level of expressed mRNA in the presence of chemical substance/The level of expressed mRNA in the absence of chemical substance” value (yeast gene YLR324W, incubated two hours with chemical substance) was 0.9. The “The level of expressed mRNA in the presence of chemical substance/The level of expressed mRNA in the absence of chemical substance” value (yeast gene YLR350W, incubated two hours with chemical substance) was 0.9, the “The level of expressed mRNA in the presence of chemical substance/The level of expressed mRNA in the absence of chemical substance” value (yeast gene YLR387C, incubated two hours with chemical substance) was 0.9 and the “The level of expressed mRNA in the presence of chemical substance/The level of expressed mRNA in the absence of chemical substance” value (yeast gene YLR460C) was 14.3. The “The level of expressed mRNA in the presence of chemical substance/The level of expressed mRNA in the absence of chemical substance” value (yeast gene YML117W, incubated two hours with chemical substance) was 0.8, the “The level of expressed mRNA in the presence of chemical substance/The level of expressed mRNA in the absence of chemical substance” value (yeast gene YMR009W, incubated two hours with chemical substance) was 2.1 and the “The level of expressed mRNA in the presence of chemical substance/The level of expressed mRNA in the absence of chemical substance” value (yeast gene YMR067C, incubated two hours with chemical substance) was 1.1. The “The level of expressed mRNA in the presence of chemical substance/The level of expressed mRNA in the absence of chemical substance” value (yeast gene YMR090W) was 8.8, the “The level of expressed mRNA in the presence of chemical substance/The level of expressed mRNA in the absence of chemical substance” value (yeast gene YMR095C, incubated two hours with chemical substance) was 2.1 and the “The level of expressed mRNA in the presence of chemical substance/The level of expressed mRNA in the absence of chemical substance” value (yeast gene YMR097C, incubated two hours with chemical substance) was 1.5. The “The level of expressed mRNA in the presence of chemical substance/The level of expressed mRNA in the absence of chemical substance” value (yeast gene YMR102C, incubated two hours with chemical substance) was 1.5, the “The level of expressed mRNA in the presence of chemical substance/The level of expressed mRNA in the absence of chemical substance” value (yeast gene YMR107W, incubated two hours with chemical substance) was 3.0 and the “The level of expressed mRNA in the presence of chemical substance/The level of expressed mRNA in the absence of chemical substance” value (yeast gene YMR180C, incubated two hours with chemical substance) was 0.7. The “The level of expressed mRNA in the presence of chemical substance/The level of expressed mRNA in the absence of chemical substance” value (yeast gene YMR184W, incubated two hours with chemical substance) was 1.5, the “The level of expressed mRNA in the presence of chemical substance/The level of expressed mRNA in the absence of chemical substance” value (yeast gene YMR191W, incubated two hours with chemical substance) was 2.3 and the “The level of expressed mRNA in the presence of chemical substance/The level of expressed mRNA in the absence of chemical substance” value (yeast gene YMR295C, incubated two hours with chemical substance) was 1.2. The “The level of expressed mRNA in the presence of chemical substance/The level of expressed mRNA in the absence of chemical substance” value (yeast gene YMR316W, incubated two hours with chemical substance) was 1.5, the “The level of expressed mRNA in the presence of chemical substance/The level of expressed mRNA in the absence of chemical substance” value (yeast gene YNL044W, incubated two hours with chemical substance) was 1.1 and the “The level of expressed mRNA in the presence of chemical substance/The level of expressed mRNA in the absence of chemical substance” value (yeast gene YNL074C, incubated two hours with chemical substance) was 1.3. The “The level of expressed mRNA in the presence of chemical substance/The level of expressed mRNA in the absence of chemical substance” value (yeast gene YNL092W, incubated two hours with chemical substance) was 0.7, the “The level of expressed mRNA in the presence of chemical substance/The level of expressed mRNA in the absence of chemical substance” value (yeast gene YNL115C, incubated two hours with chemical substance) was 1.1 and the “The level of expressed mRNA in the presence of chemical substance/The level of expressed mRNA in the absence of chemical substance” value (yeast gene YNL156C, incubated two hours with chemical substance) was 1.4. For the same compound, the “The level of expressed mRNA in the presence of chemical substance/The level of expressed mRNA in the absence of chemical substance” value (yeast gene YNL234W, incubated two hours with chemical substance) was 1.3, the “The level of expressed mRNA in the presence of chemical substance/The level of expressed mRNA in the absence of chemical substance” value (yeast gene YNL281W, incubated two hours with chemical substance) was 1.6 and the “The level of expressed mRNA in the presence of chemical substance/The level of expressed mRNA in the absence of chemical substance” value (yeast gene YNL305C, incubated two hours with chemical substance) was 1.8. The “The level of expressed mRNA in the presence of chemical substance/The level of expressed mRNA in the absence of chemical substance” value (yeast gene YNR068C, incubated two hours with chemical substance) was 1.1, the “The level of expressed mRNA in the presence of chemical substance/The level of expressed mRNA in the absence of chemical substance” value (yeast gene YOL032W, incubated two hours with chemical substance) was 1.4 and the “The level of expressed mRNA in the presence of chemical substance/The level of expressed mRNA in the absence of chemical substance” value (yeast gene YOL036W, incubated two hours with chemical substance) was 2.2. The “The level of expressed mRNA in the presence of chemical substance/The level of expressed mRNA in the absence of chemical substance” value (yeast gene YOL047C, incubated two hours with chemical substance) was 0.9, the “The level of expressed mRNA in the presence of chemical substance/The level of expressed mRNA in the absence of chemical substance” value (yeast gene YOL071W, incubated two hours with chemical substance) was 4.3 and the “The level of expressed mRNA in the presence of chemical substance/The level of expressed mRNA in the absence of chemical substance” value (yeast gene YOL082W, incubated two hours with chemical substance) was 1.6. For the same compound, the “The level of expressed mRNA in the presence of chemical substance/The level of expressed mRNA in the absence of chemical substance” value (yeast gene YOL083W, incubated two hours with chemical substance) was 1.3, the “The level of expressed mRNA in the presence of chemical substance/The level of expressed mRNA in the absence of chemical substance” value (yeast gene YOL117W, incubated two hours with chemical substance) was 1.0 and the “The level of expressed mRNA in the presence of chemical substance/The level of expressed mRNA in the absence of chemical substance” value (yeast gene YOL131W, incubated two hours with chemical substance) was 1.4. The “The level of expressed mRNA in the presence of chemical substance/The level of expressed mRNA in the absence of chemical substance” value (yeast gene YOL150C) was 9.4, the “The level of expressed mRNA in the presence of chemical substance/The level of expressed mRNA in the absence of chemical substance” value (yeast gene YOL162W, incubated two hours with chemical substance) was 4.3 and the “The level of expressed mRNA in the presence of chemical substance/The level of expressed mRNA in the absence of chemical substance” value (yeast gene YOR019W, incubated two hours with chemical substance) was 1.7. The “The level of expressed mRNA in the presence of chemical substance/The level of expressed mRNA in the absence of chemical substance” value (yeast gene YOR197W, incubated two hours with chemical substance) was 1.0, the “The level of expressed mRNA in the presence of chemical substance/The level of expressed mRNA in the absence of chemical substance” value (yeast gene YPL087W, incubated two hours with chemical substance) was 2.5 and the “The level of expressed mRNA in the presence of chemical substance/The level of expressed mRNA in the absence of chemical substance” value (yeast gene YPL196W, incubated two hours with chemical substance) was 1.7. The “The level of expressed mRNA in the presence of chemical substance/The level of expressed mRNA in the absence of chemical substance” value (yeast gene YPL206C, incubated two hours with chemical substance) was 1.5, the “The level of expressed mRNA in the presence of chemical substance/The level of expressed mRNA in the absence of chemical substance” value (yeast gene YPL222W, incubated two hours with chemical substance) was 1.2 and the “The level of expressed mRNA in the presence of chemical substance/The level of expressed mRNA in the absence of chemical substance” value (yeast gene YPR023C, incubated two hours with chemical substance) was 1.7. The “The level of expressed mRNA in the presence of chemical substance/The level of expressed mRNA in the absence of chemical substance” value (yeast gene YPR151C, incubated two hours with chemical substance) was 1.4.
